Data reported in US20200030355A1, “COMBINATION THERAPY FOR TREATING CANCER” (Epizyme, Inc., priority 2014, published 2020).
Structures can show the parent of a compound that is named as a salt.

Columns and labels:
Assay type in all cases: cell-based, human
SKM-1 cells = experiment: EPZ-5676 300 nM 7-day pre-treatment, then second compound 72 hours, ATPLite, IC50 shift (Example 6); conditions: SKM-1 cells; 300 nM EPZ-5676 or DMSO 7-day pre-treatment, then 2nd compound 72 hours, ATPLite; Synergy = IC50 of 2nd compound decreased by 2-fold or more vs DMSO control
Protocol: Cells were then equilibrated in incubators for 24 hours before treatment with a second compound. Treated assay plates were incubated with a second compound for 72 hours. After this time, plates were developed for endpoint analysis using ATPLite to measure ATP content, which is used as an indicator of cell viability.
“N/D” means that IC50 of the second compound could not be determined for both conditions.

MV4-11 (MLL-AF4) = experiment: Combination proliferation study with Compound A2 (ATP/CellTiter-Glo, Chou-Talalay combination index); conditions: for Combination with Compound A2, MV4-11 (MLL-AF4): 7 Day Cotreatment Model, Table 4; for Combination of Compound A2 and anti-cancer agent, MV4-11: 7 Day Cotreatment; for Combination with Compound A2, MV4-111 MLL-AF4: Table 2, Example 3
Protocol: (§1) The acute myelogenous leukemia cell lines MV4-11 (MLL-AF4) and MOLM-13 (MLL-AF9) were obtained from American Type Culture Collection (ATCC; Rockville, Md.) and Deutsche Sammlung von Mikroorganismen and Zellkulturen (DSMZ; Braunschweig, Germany) respectively.
(§2) Studies were performed using MLL-rearranged cell lines in vitro to evaluate the anti-proliferative effect of a combination of two agents together on cell growth. Initial proliferation studies were performed to determine the IC50 of a given compound in each cell line. The cell counts were measured by ATP quantitation using the Promega Cell Titer Glo kit and luminescence values corresponded to the amount of ATP in a given well.
(§3) Compounds were evaluated for synergy in the co-treatment phase by testing the compounds in a concentration range which was bracketed around their IC50 values. The compounds were plated to a 96 well plate in a matrix format (FIG. 3) which includes increasing concentrations of each drug in the combination in a constant ratio, in addition to the effect of each compound alone in the study. Cells were seeded and grown in the log-linear phase for 3 or 7 days in the co-treatment phase. Minimum inhibition (DMSO alone) controls were used in each plate to calculate fraction affected (Fa) of a test well. DMSO concentration was kept at 0.1% v/v.
(§4) The drug combination analysis was performed utilizing the Chou-Talalay method Synergy was determined using the software package Calcusyn by Biosoft. The combination index (CI) is a quantitative term used to describe the level of synergy or antagonism in a given test system. A combination index less than one indicates synergy, and a CI greater than one indicates antagonism. Further, strong synergism is achieved when the CI value falls below 0.3.
(§5) Graphs representing values of combination index (CI) versus Fractional effect (Fa) known as Fa-CI plots were generated and synergy was evaluated. Drug synergy was statistically defined by CI values less than 1, antagonism by CI>1 and additive effect by CI equal to 1.
as §5
The HP-D300 digital dispenser (Tecan) was used to dispense compounds in a combinatorial matrix. […] Cell viability was measured via ATP content using CellTiter-Glo® (Promega).
Viability was determined using CellTiter-Glo® (Promega).
as §2, with “Proliferation studies” for “Studies”, “MOLM-13, MV4-11 and SKM-1” for “MLL-rearranged”, “cancer cell killing” for “anti-proliferative”, “IC50 values” for “IC50”, “correspond” for “corresponded”
These studies were performed to evaluate both the combinatorial effect of compounds on cell killing and the durability of the effect by washing out one of the agents.
Compounds evaluated for synergy in the co-treatment phase were tested in a range which was bracketed around the IC50's. The compounds were plated to a 96 well plate in a matrix format which includes increasing concentrations of each drug in the combination in a constant ratio, in addition to the effect of each compound alone in the study.

MOLM-13 (MLL-AF9) = experiment: as above; conditions: for Combination of Compound A2 and anti-cancer agent, MOLM-13: 7 Day Cotreatment
Protocol: as §1, §2, §3, §4, §5
Graphs representing values of combination index (CI) versus Fractional effect (Fa) known as Fa-CI plots were generated and synergy was evaluated. Drug synergy was statistically defined by CI values less than 1, antagonism by CI>1 and additive effect by CI equal to 1. […]
Cell viability was measured via ATP content using CellTiter-Glo® (Promega).
as §2, with “Proliferation studies” for “Studies”, “MOLM-13, MV4-11 and SKM-1” for “MLL-rearranged”, “cancer cell killing” for “anti-proliferative”, “IC50 values” for “IC50”, “correspond” for “corresponded”, “well. […]” for “well.”
Compounds evaluated for synergy in the co-treatment phase were tested in a range which was bracketed around the IC50's.

[1] = 7 Day Cotreatment Model, Table 4

| SMILES | SKM-1 (summary of combination study: EPZ-5676 + 2nd compound) (SKM-1 cells) | Combination with Compound A2, MV4-11 (MLL-AF4) (MV4-11 (MLL-AF4)) | Combination with Compound A2, MOLM-13 (MLL-AF9) (MOLM-13 (MLL-AF9); [1]) | other results |
| --- | --- | --- | --- | --- |
| N#Cc1c(C2CCNCC2)cc(-c2c(O)cccc2OCC2CC2)nc1N [IKK-2 Inhibitor VIII] | Synergy (considered synergistic if the IC50 value of the second compound decreased by 2-fold or more when EPZ-5676 was added as compared to the DMSO control) | – | – | – |
| CCCc1cc2c(N3CCN(C4=NCC(C)(C)S4)CC3)ncnc2s1 [Menin-MLL inhibitor MI-2] | – | Synergy (Drug synergy was statistically defined by CI values less than 1) | Synergy (Drug synergy was statistically defined by CI values less than 1) | – |
| CC(C)(C)c1cc(NC(=O)Nc2ccc(-c3cn4c(n3)sc3cc(OCCN5CCOCC5)ccc34)cc2)no1 [Quizartinib] | – | – | Synergy (Drug synergy was statistically defined by CI values less than 1) | Combination of Compound A2 and anti-cancer agent, MV4-11 (MV4-11 (MLL-AF4)): synergy |
| O=C(Nc1cccc(Nc2ncc(Br)c(NCCc3cnc[nH]3)n2)c1)N1CCCC1 [BX-912] | Synergy (considered synergistic if the IC50 value of the second compound decreased by 2-fold or more when EPZ-5676 was added as compared to the DMSO control) | – | – | – |
| COc1ccc(-c2ccc3c(N4CCOC[C@@H]4C)nc(N4CCOC[C@@H]4C)nc3n2)cc1CO [AZD 8055] | Synergy (considered synergistic if the IC50 value of the second compound decreased by 2-fold or more when EPZ-5676 was added as compared to the DMSO control) | – | – | – |
| CC(C)CC(=O)Nc1[nH]nc2c1CN(C(=O)C1CCN(C)CC1)C2(C)C [PHA-793887] | Synergy (considered synergistic if the IC50 value of the second compound decreased by 2-fold or more when EPZ-5676 was added as compared to the DMSO control) | – | – | – |
| CC(=O)c1c(C)c2cnc(Nc3ccc(N4CCNCC4)cn3)nc2n(C2CCCC2)c1=O [Palbociclib] | – | Synergy (Drug synergy was statistically defined by CI values less than 1) | Synergy (Drug synergy was statistically defined by CI values less than 1) | – |
| O=C(CCCCCCC(=O)Nc1ccccc1)NO [Vorinostat] | – | Antagonistic (antagonism by CI>1) | Additive/Synergy | – |
| CC[C@]1(O)C[C@H]2CN(CCc3c([nH]c4ccccc34)[C@@](C(=O)OC)(c3cc4c(cc3OC)N(C=O)[C@H]3[C@@](O)(C(=O)OC)[C@H](OC(C)=O)[C@]5(CC)C=CCN6CC[C@]43[C@@H]65)C2)C1 [Vincristine] | – | Additive (additive effect by CI equal to 1) | Additive (additive effect by CI equal to 1) | – |
| CC1(C)CCC(CN2CCN(c3ccc(C(=O)NS(=O)(=O)c4ccc(NCC5CCOCC5)c([N+](=O)[O-])c4)c(Oc4cnc5[nH]ccc5c4)c3)CC2)=C(c2ccc(Cl)cc2)C1 [ABT-199] | – | Synergy (Drug synergy was statistically defined by CI values less than 1) | Additive --> Synergy | – |
| Nc1ncn([C@H]2C[C@H](O)[C@@H](CO)O2)c(=O)n1 [Decitabine] | – | Synergy (Drug synergy was statistically defined by CI values less than 1) | Synergy (Drug synergy was statistically defined by CI values less than 1) | Combination with Compound A2, MV4-111 MLL-AF4 (MV4-11 (MLL-AF4)): Synergy (Drug synergy was statistically defined by CI values less than 1); Combination with Compound A2, MOLM-13 (MLL-AF9) (MOLM-13 (MLL-AF9); Table 2, Example 3): Synergy (Drug synergy was statistically defined by CI values less than 1) |
| COc1ccc(Cc2nccc3cc(OC)c(OC)cc23)cc1OC [Papaverine Hydrochloride] | Synergy (considered synergistic if the IC50 value of the second compound decreased by 2-fold or more when EPZ-5676 was added as compared to the DMSO control) | – | – | – |
| N[C@@H]1C[C@H]1c1ccccc1 (racemic) [Tranylcypromine] | – | Synergy (Drug synergy was statistically defined by CI values less than 1) | Strong Synergy | Combination of Compound A2 and anti-cancer agent, MV4-11 (MV4-11 (MLL-AF4)): synergy; Combination of Compound A2 and anti-cancer agent, MOLM-13 (MOLM-13 (MLL-AF9)): synergy |
| CC1(C)CCC(c2ccc(Cl)cc2)=C(CN2CCN(c3ccc(C(=O)NS(=O)(=O)c4ccc(N[C@H](CCN5CCOCC5)CSc5ccccc5)c(S(=O)(=O)C(F)(F)F)c4)cc3)CC2)C1 [Navitoclax] | – | Synergy (Drug synergy was statistically defined by CI values less than 1) | Synergy (Drug synergy was statistically defined by CI values less than 1) | Combination of Compound A2 and anti-cancer agent, MV4-11 (MV4-11 (MLL-AF4)): synergy; Combination of Compound A2 and anti-cancer agent, MOLM-13 (MOLM-13 (MLL-AF9)): synergy |
| C=C[C@@]1(C)CC(=O)[C@]2(O)[C@@]3(C)[C@@H](O)CCC(C)(C)[C@@H]3[C@H](OC(=O)CCN(C)C)[C@H](OC(C)=O)[C@@]2(C)O1.Cl [NKH 477] | Synergy (considered synergistic if the IC50 value of the second compound decreased by 2-fold or more when EPZ-5676 was added as compared to the DMSO control) | – | – | – |
| C#Cc1cccc(Nc2ncnc3cc(OCCOC)c(OCCOC)cc23)c1 [Erlotinib Hydrochloride] | Synergy (considered synergistic if the IC50 value of the second compound decreased by 2-fold or more when EPZ-5676 was added as compared to the DMSO control) | – | – | – |
| COc1ccc(CCc2nc3cc(-c4c(C)noc4C)ccc3n2C[C@H](C)N2CCOCC2)cc1Cl [SGC-CBP30] | Synergy (considered synergistic if the IC50 value of the second compound decreased by 2-fold or more when EPZ-5676 was added as compared to the DMSO control) | – | – | – |
| CN(C)CC[C@H](CSc1ccccc1)Nc1ccc(S(=O)(=O)NC(=O)c2ccc(N3CCN(Cc4ccccc4-c4ccc(Cl)cc4)CC3)cc2)cc1[N+](=O)[O-] [ABT-737] | Synergy (considered synergistic if the IC50 value of the second compound decreased by 2-fold or more when EPZ-5676 was added as compared to the DMSO control) | – | – | – |
| O=C1c2c(O)ccc(O)c2C(=O)c2c(NCCNCCO)ccc(NCCNCCO)c21 [Mitoxantrone] | – | Synergy (Drug synergy was statistically defined by CI values less than 1) | Synergy (Drug synergy was statistically defined by CI values less than 1) | Combination of Compound A2 and anti-cancer agent, MV4-11 (MV4-11 (MLL-AF4)): Synergy (A combination index less than one indicates synergy) |
| Nc1nc(Cl)nc2c1ncn2[C@@H]1O[C@H](CO)[C@@H](O)[C@@H]1F [Clofarabine] | – | Synergy (Drug synergy was statistically defined by CI values less than 1) | Synergy (Drug synergy was statistically defined by CI values less than 1) | – |
| Cc1sc2c(c1C)C(c1ccc(Cl)cc1)=N[C@@H](CC(=O)OC(C)(C)C)c1nnc(C)n1-2 [JQ1] | – | Additive (additive effect by CI equal to 1) | Additive (additive effect by CI equal to 1) | Combination with Compound A2, MV4-111 MLL-AF4 (MV4-11 (MLL-AF4)): Additive (additive effect by CI equal to 1); Combination with Compound A2, MOLM-13 (MLL-AF9) (MOLM-13 (MLL-AF9); Table 2, Example 3): Additive (additive effect by CI equal to 1) |
| NC(=O)NO [Hydroxyurea] | – | Synergy (Drug synergy was statistically defined by CI values less than 1) | Synergy (Drug synergy was statistically defined by CI values less than 1) | – |
